Data as given in ChEMBL document CHEMBL1132463, “Metabolism-based brain-targeting system for a thyrotropin-releasing hormone analogue” (1999).
Square brackets hold non-standard residues; d marks the D form. Peptide text beside a SMILES is read from it. * marks the point of attachment. Nicotinoyl(1-Me-1,4-dihydro) = CN1C=CCC(C(=O)*)=C1; X1 = CC(C)CCC(C)C1CCC2C3CC=C4CC(O*)CCC4(C)C3CCC12C; pGlu = O=C1CC[C@@H](C(=O)O)N1

Tested on: Mus musculus
Assay: Barbiturate-induced sleeping time in mice after the administration of the compound
Assay type: functional

`CC(C)CCC(C)C1CCC2C3CC=C4CC(OC(=O)CNC(=O)[C@@H]5CCCN5C(=O)[C@H](CC(C)C)NC(=O)[C@H](CCC(N)=O)NC(=O)[C@@H]5CCCN5C(=O)[C@@H]5CCCN5C(=O)C5=CN(C)C=CC5)CCC4(C)C3CCC12C` (some centres not stated) ({Nicotinoyl(1-Me-1,4-dihydro)}-PPQLPG-X1) was tested. Which Sleeping time did it give?
Its Sleeping time is 26.8 min.

Which Sleeping time does the source give for `CC(C)C[C@H](NC(=O)[C@@H]1CCC(=O)N1)C(=O)N1CCC[C@H]1C(N)=O` ([pGlu]-Leu-Pro-NH2) here?
The Sleeping time was 45.5 min.

With `CC(C)CCC(C)C1CCC2C3CC=C4CC(OC(=O)CNC(=O)[C@@H]5CCCN5C(=O)[C@H](CC(C)C)NC(=O)[C@H](CCC(N)=O)NC(=O)[C@H](C)NC(=O)[C@@H]5CCCN5C(=O)C5=CN(C)C=CC5)CCC4(C)C3CCC12C` (some centres not stated) ({Nicotinoyl(1-Me-1,4-dihydro)}-PAQLPG-X1) as the molecule, how does the Sleeping time read?
Its Sleeping time is 24.3 min.

How did the Sleeping time turn out when `CC(C)CCC(C)C1CCC2C3CC=C4CC(OC(=O)CNC(=O)[C@@H]5CCCN5C(=O)[C@H](CC(C)C)NC(=O)[C@H](CCC(N)=O)NC(=O)[C@H](C)NC(=O)C5=CN(C)C=CC5)CCC4(C)C3CCC12C` (some centres not stated) ({Nicotinoyl(1-Me-1,4-dihydro)}-AQLPG-X1) was run?
Its Sleeping time is 38 min.

`CC(C)CCC(C)C1CCC2C3CC=C4CC(OC(=O)CNC(=O)[C@@H]5CCCN5C(=O)[C@H](CC(C)C)NC(=O)[C@H](CCC(N)=O)NC(=O)[C@@H]5CCCN5C(=O)C5=CN(C)C=CC5)CCC4(C)C3CCC12C` (some centres not stated) ({Nicotinoyl(1-Me-1,4-dihydro)}-PQLPG-X1) was tested. Which Sleeping time did it give?
Its Sleeping time is 29.2 min.

Which Sleeping time does the source give for `CC(C)CCC(C)C1CCC2C3CC=C4CC(OC(=O)CNC(=O)[C@@H]5CCCN5C(=O)[C@H](CC(C)C)NC(=O)[C@H](CCC(N)=O)NC(=O)[C@@H]5CCCN5C(=O)[C@H](C)NC(=O)C5=CN(C)C=CC5)CCC4(C)C3CCC12C` (some centres not stated) ({Nicotinoyl(1-Me-1,4-dihydro)}-APQLPG-X1) here?
Its Sleeping time is 35 min.

With `CC(C)CCC(C)C1CCC2C3CC=C4CC(OC(=O)CNC(=O)[C@@H]5CCCN5C(=O)[C@H](CC(C)C)NC(=O)[C@H](CCC(N)=O)NC(=O)[C@H](C)NC(=O)[C@H](C)NC(=O)C5=CN(C)C=CC5)CCC4(C)C3CCC12C` (some centres not stated) ({Nicotinoyl(1-Me-1,4-dihydro)}-AAQLPG-X1) as the molecule, how does the Sleeping time read?
Its Sleeping time is 37 min.
